Among the data in ChEMBL document CHEMBL3217594, “Structureactivity relationships of methyl-lysine reader antagonists” (Medchemcomm, 2012) are Activity and inhibition values, retold here.

Assay [1] deals with TP53-binding protein 1 (Homo sapiens) (UniProt Q12888). Nature of the assay: Effect on GST-fused 53BP1 Tudor domain (unknown origin)/biotinylated H4K20Me1 peptide interaction assessed as binding of 53BP1 to H4K20Me1 at 25 uM by pull down assay based western blot analysis.
For assay [2], the system named is T1, Lethal(3)malignant brain tumor-like protein 1 (Homo sapiens), Q9Y468 [D355N].
T1 sequence (whole entry): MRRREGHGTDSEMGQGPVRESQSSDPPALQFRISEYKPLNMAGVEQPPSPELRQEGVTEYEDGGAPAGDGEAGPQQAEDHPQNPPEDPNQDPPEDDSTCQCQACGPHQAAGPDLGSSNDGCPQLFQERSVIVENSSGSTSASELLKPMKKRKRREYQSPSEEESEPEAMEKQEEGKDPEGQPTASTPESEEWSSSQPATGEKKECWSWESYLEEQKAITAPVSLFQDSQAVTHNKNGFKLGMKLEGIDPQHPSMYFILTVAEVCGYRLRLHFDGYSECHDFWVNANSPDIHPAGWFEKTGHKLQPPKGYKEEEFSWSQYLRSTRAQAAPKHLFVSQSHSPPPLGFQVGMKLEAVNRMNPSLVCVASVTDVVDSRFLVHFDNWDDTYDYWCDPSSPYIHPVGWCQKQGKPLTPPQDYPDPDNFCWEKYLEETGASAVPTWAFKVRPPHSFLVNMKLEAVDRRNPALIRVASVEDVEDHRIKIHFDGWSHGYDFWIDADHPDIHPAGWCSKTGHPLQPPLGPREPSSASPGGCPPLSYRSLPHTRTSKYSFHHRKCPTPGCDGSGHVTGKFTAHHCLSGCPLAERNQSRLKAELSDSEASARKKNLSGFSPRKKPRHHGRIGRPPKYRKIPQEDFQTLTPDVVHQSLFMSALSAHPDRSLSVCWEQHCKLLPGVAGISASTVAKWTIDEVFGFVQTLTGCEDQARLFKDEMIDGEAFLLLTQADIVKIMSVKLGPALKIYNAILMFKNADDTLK
The conditions noted are these: 5 to 25 uM.
Description: Inhibition of GST-fused L3MBTL1 3xMBT-D355N mutant (unknown origin)/biotinylated H4K20Me1 peptide interaction at 5 to 25 uM by pull down assay based western blot analysis

The target in assay [3] is TP53-binding protein 1 (Homo sapiens) (UniProt Q12888). Nature of the assay: Effect on GST-fused 53BP1 Tudor domain (unknown origin)/biotinylated H4K20Me1 peptide interaction assessed as binding of 53BP1 to H4K20Me1 at 5 uM by pull down assay based western blot analysis. On the technique in general: In western blotting, separated proteins are transferred to a membrane and probed.

The source made the active and inactive calls. No cut-off for these calls is given here.

Chain of TP53-binding protein 1 (Homo sapiens) (Q12888 whole entry, the tested form may be a part): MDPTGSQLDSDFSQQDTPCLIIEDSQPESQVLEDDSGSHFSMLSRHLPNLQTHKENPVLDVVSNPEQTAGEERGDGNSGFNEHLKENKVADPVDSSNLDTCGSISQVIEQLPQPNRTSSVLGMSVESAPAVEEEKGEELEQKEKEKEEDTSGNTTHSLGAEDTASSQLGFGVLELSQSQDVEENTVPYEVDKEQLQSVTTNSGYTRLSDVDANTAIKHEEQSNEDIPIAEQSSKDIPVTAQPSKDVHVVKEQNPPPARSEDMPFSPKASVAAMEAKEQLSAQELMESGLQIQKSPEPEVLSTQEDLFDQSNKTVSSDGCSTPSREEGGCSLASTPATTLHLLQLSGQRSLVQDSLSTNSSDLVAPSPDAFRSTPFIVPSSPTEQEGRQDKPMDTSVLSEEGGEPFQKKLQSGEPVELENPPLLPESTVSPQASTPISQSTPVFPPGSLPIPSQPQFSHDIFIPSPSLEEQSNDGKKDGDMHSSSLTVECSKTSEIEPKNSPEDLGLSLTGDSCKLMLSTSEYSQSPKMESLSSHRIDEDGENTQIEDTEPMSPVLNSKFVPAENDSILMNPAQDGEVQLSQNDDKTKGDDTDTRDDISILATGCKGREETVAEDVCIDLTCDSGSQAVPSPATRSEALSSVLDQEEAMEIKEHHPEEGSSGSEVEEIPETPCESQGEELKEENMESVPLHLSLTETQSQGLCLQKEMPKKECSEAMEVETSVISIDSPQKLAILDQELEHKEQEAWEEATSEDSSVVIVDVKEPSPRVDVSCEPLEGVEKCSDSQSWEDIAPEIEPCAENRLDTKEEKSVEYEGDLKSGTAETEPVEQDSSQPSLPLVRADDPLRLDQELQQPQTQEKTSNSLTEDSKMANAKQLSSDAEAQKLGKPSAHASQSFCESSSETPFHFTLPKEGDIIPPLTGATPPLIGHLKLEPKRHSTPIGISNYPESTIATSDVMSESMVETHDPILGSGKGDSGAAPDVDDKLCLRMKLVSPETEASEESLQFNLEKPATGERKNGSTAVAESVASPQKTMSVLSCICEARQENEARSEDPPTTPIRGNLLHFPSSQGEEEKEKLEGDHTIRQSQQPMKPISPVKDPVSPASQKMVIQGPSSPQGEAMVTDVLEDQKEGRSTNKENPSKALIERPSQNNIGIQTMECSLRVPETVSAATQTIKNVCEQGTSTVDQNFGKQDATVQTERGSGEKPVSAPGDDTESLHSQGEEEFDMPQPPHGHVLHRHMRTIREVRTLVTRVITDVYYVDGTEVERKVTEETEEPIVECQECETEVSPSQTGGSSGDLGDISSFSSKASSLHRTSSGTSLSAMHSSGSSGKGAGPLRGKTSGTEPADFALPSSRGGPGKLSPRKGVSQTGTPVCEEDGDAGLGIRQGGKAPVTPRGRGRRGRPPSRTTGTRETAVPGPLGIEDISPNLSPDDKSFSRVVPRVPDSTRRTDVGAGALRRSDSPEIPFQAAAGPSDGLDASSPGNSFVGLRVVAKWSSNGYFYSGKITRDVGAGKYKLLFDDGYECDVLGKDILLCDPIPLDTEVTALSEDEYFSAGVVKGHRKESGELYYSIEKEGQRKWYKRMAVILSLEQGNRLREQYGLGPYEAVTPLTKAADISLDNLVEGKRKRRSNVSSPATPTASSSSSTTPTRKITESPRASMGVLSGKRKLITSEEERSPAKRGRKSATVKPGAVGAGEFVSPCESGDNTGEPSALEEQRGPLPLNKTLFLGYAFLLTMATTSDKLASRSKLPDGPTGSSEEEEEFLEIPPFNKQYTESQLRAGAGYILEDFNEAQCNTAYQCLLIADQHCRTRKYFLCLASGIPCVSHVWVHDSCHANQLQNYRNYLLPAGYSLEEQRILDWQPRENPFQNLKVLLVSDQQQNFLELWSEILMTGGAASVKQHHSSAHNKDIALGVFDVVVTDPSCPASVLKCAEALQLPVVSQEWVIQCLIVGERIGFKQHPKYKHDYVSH

As for `O=C(c1cccc(Br)c1)N1CCC(N2CCCC2)CC1`, the Activity in assay [1] stood at 106%; in assay [3], 124%. The inhibition result in assay [2] was “inactive”.

`O=C(c1cccc(Br)c1)N1CCC(N2CCCCC2)CC1`: the Activity in assay [1] stood at 91%; in assay [3] it was 120%. The inhibition entry in assay [2] was “inactive”.
